Consider six molecules from ChEMBL document CHEMBL3091424, “Anti-tubercular agents. Part 8: synthesis, antibacterial and antitubercular activity of 5-nitrofuran based 1,2,3-triazoles” (Bioorg Med Chem Lett, 2013).

Each structure is given as a SMILES string. Values after ≈ are worked out from the molar mass of the structure shown. Active and inactive are the calls of the source.

The IC50 is the concentration that gives 50% inhibition. Broadly, the MIC is the lowest concentration that inhibits growth of the organism. By MBC is commonly meant the smallest concentration meeting the test's criterion for killing.

In assay [1] the test system is Raoultella planticola. Put plainly: Antibiofilm activity against Klebsiella planticola MTCC 530 after 24 hrs by crystal violet assay. The settings on record: MTCC 530, 24 h. The class given is functional, organism-based.
The test system of assay [2] is Staphylococcus aureus. Put plainly: Antibiofilm activity against Staphylococcus aureus MLS-16 MTCC 2940 after 24 hrs by crystal violet assay. The class given is functional, organism-based. As to conditions: MLS-16 MTCC 2940, 24 h.
Assay [3] concerns Staphylococcus aureus. Put plainly: Antibiofilm activity against Staphylococcus aureus MTCC 96 after 24 hrs by crystal violet assay. The class given is functional, organism-based. As to conditions: for IC50: MTCC 96, 24 h.
Assay [4] relates to Raoultella planticola. The experiment in a line: Antimicrobial activity against Klebsiella planticola MTCC 530 after 24 hrs by well diffusion method. The class given is functional. As to conditions: MTCC 530, 24 h. On the technique in general: In agar diffusion tests the substance spreads into inoculated agar from a disc or well.
For assay [5], the system named is Pseudomonas aeruginosa. The experiment in a line: Antimicrobial activity against Pseudomonas aeruginosa MTCC 2453 after 24 hrs by well diffusion method. The class given is functional. As to conditions: MTCC 2453, 24 h.
In assay [6] the test system is Escherichia coli. Put plainly: Antimicrobial activity against Escherichia coli MTCC 739 after 24 hrs by well diffusion method. The class given is functional. As to conditions: MTCC 739, 24 h.
In assay [7] the test system is Bacillus subtilis. Put plainly: Antimicrobial activity against Bacillus subtilis MTCC 121 after 24 hrs by well diffusion method. The class given is functional. As to conditions: MTCC 121, 24 h.
Assay [8] deals with Staphylococcus aureus. The experiment in a line: Antimicrobial activity against Staphylococcus aureus MLS-16 MTCC 2940 after 24 hrs by well diffusion method. The class given is functional. As to conditions: MLS-16 MTCC 2940, 24 h.
For assay [9], the system named is Micrococcus luteus. The experiment in a line: Antimicrobial activity against Micrococcus luteus MTCC 2470 after 24 hrs by well diffusion method. The class given is functional. The settings on record: MTCC 2470, 24 h.
Assay [10] relates to Staphylococcus aureus. The experiment in a line: Antimicrobial activity against Staphylococcus aureus MTCC 96 after 24 hrs by well diffusion method. The class given is functional. The settings on record: MTCC 96, 24 h.
A further assay relates to Vero. The experiment in a line: Cytotoxicity against african green monkey Vero cells. As to conditions: Chlorocebus sabaeus. The class given is cell-based.
Another assay relates to MRC5. Put plainly: Cytotoxicity against human MRC5 cells. The class given is cell-based.
Assay [11] relates to Raoultella planticola. Put plainly: Bactericidal activity against Klebsiella planticola MTCC 530 after 24 hrs. As to conditions: MTCC 530, 24 h. The class given is functional.
Assay [12] concerns Pseudomonas aeruginosa. Put plainly: Bactericidal activity against Pseudomonas aeruginosa MTCC 2453 after 24 hrs. The settings on record: MTCC 2453, 24 h. The class given is functional.
Assay [13] relates to Escherichia coli. The experiment in a line: Bactericidal activity against Escherichia coli MTCC 739 after 24 hrs. The class given is functional. As to conditions: MTCC 739, 24 h.
In assay [14] the test system is Bacillus subtilis. The experiment in a line: Bactericidal activity against Bacillus subtilis MTCC 121 after 24 hrs. The class given is functional. As to conditions: MTCC 121, 24 h.
The subject of assay [15] is Staphylococcus aureus. The experiment in a line: Bactericidal activity against Staphylococcus aureus MLS-16 MTCC 2940 after 24 hrs. The class given is functional. As to conditions: MLS-16 MTCC 2940, 24 h.
In assay [16] the test system is Staphylococcus aureus. The experiment in a line: Bactericidal activity against Staphylococcus aureus MTCC 96 after 24 hrs. The class given is functional. As to conditions: MTCC 96, 24 h.
Assay [17] concerns Micrococcus luteus. The experiment in a line: Bactericidal activity against Micrococcus luteus MTCC 2470 after 24 hrs. The class given is functional. The settings on record: MTCC 2470, 24 h.
Assay [18] concerns Mycobacterium tuberculosis. The experiment in a line: Antimicrobial activity against Mycobacterium tuberculosis H37Rv after 3 weeks by broth dilution method. The class given is functional. The settings on record: for MIC: 504 h. (Broth dilution looks for growth in wells or tubes with falling amounts of substance.)
The subject of assay [19] is Staphylococcus aureus. The experiment in a line: Antimicrobial activity against methicillin-resistant Staphylococcus aureus after 24 hrs by microdilution method. The class given is functional.
In a further assay the test system is Candida albicans. Put plainly: Antimicrobial activity against Candida albicans MTCC 3017 at 150 ug/ml after 24 hrs by well diffusion method. The class given is functional, organism-based.
A further assay relates to Enterococcus faecalis. Put plainly: Antimicrobial activity against vancomycin -resistant Enterococcus faecalis after 24 hrs by microdilution method. The class given is functional.

On to `CC[C@H]1OC(=O)[C@H](C)[C@@H](O[C@H]2C[C@@](C)(OC)[C@@H](O)[C@H](C)O2)[C@H](C)[C@@H](O[C@@H]2O[C@H](C)C[C@H](N(C)C)[C@H]2O)[C@](C)(O)C[C@@H](C)C(=O)[C@H](C)[C@@H](O)[C@]1(C)O` [ERYTHROMYCIN], for which the half-inhibitory concentration (IC50) was 0.19 mg/L (≈ 0.259 µM) with Raoultella planticola [1], 0.21 mg/L (≈ 0.286 µM) in the assay on Staphylococcus aureus [2] and 0.25 mg/L (≈ 0.341 µM) in the assay with Staphylococcus aureus [3].
With `O=C(O)c1cn(C2CC2)c2cc(N3CCNCC3)c(F)cc2c1=O` [CIPROFLOXACIN], the MIC against Raoultella planticola [4], against Pseudomonas aeruginosa [5], against Escherichia coli [6], in the assay with Bacillus subtilis [7], against Staphylococcus aureus [8] and against Micrococcus luteus [9] was 0.58 mg/L (≈ 1.75 µM) throughout. Moreover, it took 0.58 mg/L (≈ 1.75 µM) to inhibit growth with Staphylococcus aureus [10] (MIC). For the same molecule, the values for the half-inhibitory concentration (IC50) in the assay on Vero and in the assay with MRC5 were 192 µM and 181 µM, respectively. Besides, the MBC with Raoultella planticola [11] is 1.17 mg/L (≈ 3.53 µM); in the assay on Pseudomonas aeruginosa [12], 0.58 mg/L (≈ 1.75 µM); with Escherichia coli [13] it was 0.58 mg/L (≈ 1.75 µM); with Bacillus subtilis [14], 1.17 mg/L (≈ 3.53 µM); in the assay with Staphylococcus aureus [15], 1.17 mg/L (≈ 3.53 µM); against Staphylococcus aureus [16] it was 0.58 mg/L (≈ 1.75 µM). Also, in the assay on Micrococcus luteus [17], the minimum bactericidal concentration (MBC) amounted to 0.58 mg/L (≈ 1.75 µM).
Regarding `O=C(NCc1cn(Cc2ccc([N+](=O)[O-])cc2)nn1)c1ccc([N+](=O)[O-])o1`, the MIC was 18.8 mg/L (≈ 50.4 µM) against Raoultella planticola [4]; above 150 mg/L with Pseudomonas aeruginosa [5]; above 150 mg/L in the assay on Escherichia coli [6]; 2.34 mg/L (≈ 6.29 µM) against Bacillus subtilis [7]; 4.68 mg/L (≈ 12.6 µM) in the assay on Staphylococcus aureus [8]; 4.68 mg/L (≈ 12.6 µM) with Micrococcus luteus [9]. The MIC with Staphylococcus aureus [10] is above 150 mg/L; in assay [18] it was 8 mg/L (≈ 21.5 µM); in the assay on Staphylococcus aureus [19] it was 8 mg/L (≈ 21.5 µM); in the assay with Enterococcus faecalis, above 64 mg/L. The half-inhibitory concentration (IC50) in the assay on Vero is 291 µM; in the assay with MRC5 it was 213 µM; in the assay on Raoultella planticola [1] it was 17.9 mg/L (≈ 48.1 µM); with Staphylococcus aureus [2], 3.8 mg/L (≈ 10.2 µM). For the same molecule, the inhibition entry in the assay on Staphylococcus aureus [3] was “inactive”. The outcome in the assay with Candida albicans was inactive. For the same molecule, the MBC was 37.5 mg/L (≈ 101 µM) in the assay on Raoultella planticola [11]; above 150 mg/L in the assay with Pseudomonas aeruginosa [12]; above 150 mg/L with Escherichia coli [13]; 4.68 mg/L (≈ 12.6 µM) in the assay on Bacillus subtilis [14]; 4.68 mg/L (≈ 12.6 µM) in the assay on Staphylococcus aureus [15]; above 150 mg/L with Staphylococcus aureus [16]. Also, the minimum bactericidal concentration (MBC) with Micrococcus luteus [17] came out at 9.37 mg/L (≈ 25.2 µM).
For the molecule `COc1ccc(Cn2cc(CNC(=O)c3ccc([N+](=O)[O-])o3)nn2)cc1`, the minimal inhibitory concentration (MIC) in the assay on Raoultella planticola [4] is 37.5 mg/L (≈ 105 µM); against Pseudomonas aeruginosa [5], above 150 mg/L; with Escherichia coli [6] it was 75 mg/L (≈ 210 µM); in the assay on Bacillus subtilis [7] it was 2.34 mg/L (≈ 6.55 µM); in the assay on Staphylococcus aureus [8], 9.37 mg/L (≈ 26.2 µM); against Micrococcus luteus [9], 2.34 mg/L (≈ 6.55 µM). The MIC with Staphylococcus aureus [10] was found to be 37.5 mg/L (≈ 105 µM). Further, the IC50 turned out to be 274 µM in the assay on Vero; 146 µM in the assay with MRC5; 24 mg/L (≈ 67.2 µM) in the assay on Raoultella planticola [1]; 6.1 mg/L (≈ 17.1 µM) in the assay on Staphylococcus aureus [2]; 12.6 mg/L (≈ 35.3 µM) in the assay with Staphylococcus aureus [3]. In addition, the outcome (in [18]; in the assay with Candida albicans) was inactive. Besides, the minimal bactericidal concentration (MBC) with Raoultella planticola [11] is 37.5 mg/L (≈ 105 µM); in the assay on Pseudomonas aeruginosa [12] it was above 150 mg/L; in the assay with Escherichia coli [13], 75 mg/L (≈ 210 µM); in the assay with Bacillus subtilis [14], 4.68 mg/L (≈ 13.1 µM); against Staphylococcus aureus [15] it was 9.37 mg/L (≈ 26.2 µM); in the assay on Staphylococcus aureus [16] it was 75 mg/L (≈ 210 µM). Besides, the minimal bactericidal concentration (MBC) in the assay on Micrococcus luteus [17] is 2.34 mg/L (≈ 6.55 µM).
For the molecule `CC(=O)NC[C@H]1CN(c2ccc(N3CCOCC3)c(F)c2)C(=O)O1` [LINEZOLID], the minimal inhibitory concentration (MIC) was determined as 1 mg/L (≈ 2.96 µM) in assay [18] and 8 mg/L (≈ 23.7 µM) in the assay with Staphylococcus aureus [19].
On to `COc1ccc(Cn2cc(CNC(=O)c3ccc([N+](=O)[O-])o3)nn2)cc1O`, for which the minimal inhibitory concentration (MIC) against Raoultella planticola [4] is 18.8 mg/L (≈ 50.2 µM); in the assay on Pseudomonas aeruginosa [5], above 150 mg/L; against Escherichia coli [6] it was 37.5 mg/L (≈ 100 µM); against Bacillus subtilis [7], 9.37 mg/L (≈ 25.1 µM); with Staphylococcus aureus [8], 9.37 mg/L (≈ 25.1 µM); against Micrococcus luteus [9], 9.37 mg/L (≈ 25.1 µM). In addition, the MIC against Staphylococcus aureus [10] turned out to be 37.5 mg/L (≈ 100 µM). Moreover, the IC50 with Vero turned out to be 174 µM; with MRC5, 189 µM; in the assay with Raoultella planticola [1], 11.3 mg/L (≈ 30.3 µM); with Staphylococcus aureus [2], 5.1 mg/L (≈ 13.7 µM); in the assay on Staphylococcus aureus [3], 10.3 mg/L (≈ 27.6 µM). In addition, the result (in assay [18]; with Candida albicans) was inactive. Besides, the MBC was 18.8 mg/L (≈ 50.2 µM) in the assay with Raoultella planticola [11]; above 150 mg/L against Pseudomonas aeruginosa [12]; 75 mg/L (≈ 201 µM) in the assay on Escherichia coli [13]; 18.8 mg/L (≈ 50.2 µM) with Bacillus subtilis [14]; 18.8 mg/L (≈ 50.2 µM) in the assay with Staphylococcus aureus [15]; 75 mg/L (≈ 201 µM) in the assay on Staphylococcus aureus [16]. The MBC against Micrococcus luteus [17] is 9.37 mg/L (≈ 25.1 µM).
